Experimental data published in US8952024B2, “Herbicidal pyrimidone derivatives” (E I du Pont de Nemours and Company, priority 2009, dated 2015).

Legend:
Assay in all cases: Test B pre-/postemergence plant response
Type in all cases: in vivo
[1] = system: green foxtail (Setaria viridis); details: for Plant response rating, Foxtail, Green: Postemergence
In short: (§1)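 Response scores were assigned visually after 13 to 15 days in a greenhouse, comparing treated pots with controls on a 0–100 scale where 100 denotes complete control. Preemergence treatments went onto freshly seeded loam/sand soil; postemergence treatments onto plants 2 to 18 cm tall.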

[2] = system: Surinam grass (Brachiaria decumbens); details: for Plant response rating, Surinam Grass: Postemergence
In short: as §1

[3] = system: large crabgrass (Digitaria sanguinalis); details: for Plant response rating, Crabgrass, Large: Postemergence
In short: as §1

soybean (Glycine max) = details: for Plant response rating, Soybean: Postemergence
In short: as §1

[4] = system: woolly cupgrass (Eriochloa villosa); details: for Plant response rating, Cupgrass, Woolly: Postemergence
In short: as §1

[5] = system: downy bromegrass (Bromus tectorum); details: for Plant response rating, Bromegrass, Downy: Postemergence
In short: as §1

corn (Zea mays) = details: for Plant response rating, Corn: Postemergence
In short: as §1

[6] = system: pigweed (Amaranthus retroflexus); details: for Plant response rating, Pigweed: Postemergence
In short: as §1

[7] = system: johnsongrass (Sorghum halepense); details: for Plant response rating, Johnsongrass: Postemergence
In short: as §1

kochia (Kochia scoparia) = details: for Plant response rating, Kochia: Postemergence
In short: as §1

[8] = system: velvetleaf (Abutilon theophrasti); details: for Plant response rating, Velvetleaf: Postemergence
In short: as §1

[9] = system: morningglory (Ipomoea coccinea); details: for Plant response rating, Morningglory: Postemergence
In short: as §1

wild oat (Avena fatua) = details: for Plant response rating, Oat, Wild: Postemergence
In short: as §1

[10] = system: lambsquarters (Chenopodium album); details: for Plant response rating, Lambsquarters: Postemergence
In short: as §1

[11] = system: yellow nutsedge (Cyperus esculentus); details: for Plant response rating, Nutsedge, Yellow: Postemergence
In short: as §1

[12] = system: goosegrass (Eleusine indica); details: for Plant response rating, Goosegrass: Postemergence
In short: as §1

[13] = system: blackgrass (Alopecurus myosuroides); details: for Plant response rating, Blackgrass: Postemergence
In short: as §1

[14] = 62 g ai/ha, postemergence, 0 is no effect, 100 is complete control, 13 to 15 days
[15] = 31 g ai/ha, 0 to 100 scale (0 no effect, 100 complete control)
[16] = 125 g ai/ha, scale 0 to 100 (0 no effect, 100 complete control)
[17] = 250 g ai/ha, scale 0 to 100 (0 no effect, 100 complete control), 13 to 15 days

CCCn1c(-c2cccc(F)c2)ncc(C(=O)C2=C(O)CCCC2=O)c1=O [Compound 127]
Foxtail, Green plant response rating (0 to 100 scale) [1, 14]: 85 | Plant response rating, Foxtail, Green [1, 15]: 75 | Plant response rating, Foxtail, Green [1, 16]: 90 | Plant response rating, Foxtail, Green [1, 17]: 95 | Surinam Grass plant response rating (0 to 100 scale) [2, 14]: 75 | Plant response rating, Surinam Grass [2, 15]: 75 | Plant response rating, Surinam Grass [2, 16]: 85 | Plant response rating, Surinam Grass [2, 17]: 90 | Crabgrass, Large plant response rating (0 to 100 scale) [3, 14]: 85 | Plant response rating, Crabgrass, Large [3, 15]: 80 | Plant response rating, Crabgrass, Large [3, 16]: 90 | Plant response rating, Crabgrass, Large [3, 17]: 95 | Soybean plant response rating (0 to 100 scale) (soybean (Glycine max); [14]): 98 | Plant response rating, Soybean (soybean (Glycine max); [15]): 95 | Plant response rating, Soybean (soybean (Glycine max); [16]): 98 | Plant response rating, Soybean (soybean (Glycine max); [17]): 98 | Cupgrass, Woolly plant response rating (0 to 100 scale) [4, 14]: 75 | Plant response rating, Cupgrass, Woolly [4, 15]: 75 | Plant response rating, Cupgrass, Woolly [4, 16]: 85 | Plant response rating, Cupgrass, Woolly [4, 17]: 85 | Bromegrass, Downy plant response rating (0 to 100 scale) [5, 14]: 10 | Plant response rating, Bromegrass, Downy [5, 15]: 5 | Plant response rating, Bromegrass, Downy [5, 16]: 20 | Plant response rating, Bromegrass, Downy [5, 17]: 40 | Corn plant response rating (0 to 100 scale) (corn (Zea mays); [14]): 25 | Plant response rating, Corn (corn (Zea mays); [15]): 5 | Plant response rating, Corn (corn (Zea mays); [16]): 25 | Plant response rating, Corn (corn (Zea mays); [17]): 75 | Pigweed plant response rating (0 to 100 scale) [6, 14]: 95 | Plant response rating, Pigweed [6, 15]: 80 | Plant response rating, Pigweed [6, 16]: 95 | Plant response rating, Pigweed [6, 17]: 100 | Johnsongrass plant response rating (0 to 100 scale) [7, 14]: 70 | Plant response rating, Johnsongrass [7, 15]: 65 | Plant response rating, Johnsongrass [7, 16]: 80 | Plant response rating, Johnsongrass [7, 17]: 95 | Kochia plant response rating (0 to 100 scale) (kochia (Kochia scoparia); [14]): 98 | Plant response rating, Kochia (kochia (Kochia scoparia); [15]): 45 | Plant response rating, Kochia (kochia (Kochia scoparia); [16]): 100 | Plant response rating, Kochia (kochia (Kochia scoparia); [17]): 100 | Velvetleaf plant response rating (0 to 100 scale) [8, 14]: 95 | Plant response rating, Velvetleaf [8, 15]: 90 | Plant response rating, Velvetleaf [8, 16]: 100 | Plant response rating, Velvetleaf [8, 17]: 100 | Morningglory plant response rating (0 to 100 scale) [9, 14]: 80 | Plant response rating, Morningglory [9, 15]: 65 | Plant response rating, Morningglory [9, 16]: 90 | Plant response rating, Morningglory [9, 17]: 98 | Oat, Wild plant response rating (0 to 100 scale) (wild oat (Avena fatua); [14]): 10 | Plant response rating, Oat, Wild (wild oat (Avena fatua); [15]): 5 | Plant response rating, Oat, Wild (wild oat (Avena fatua); [16]): 25 | Plant response rating, Oat, Wild (wild oat (Avena fatua); [17]): 60 | Lambsquarters plant response rating (0 to 100 scale) [10, 14]: 85 | Plant response rating, Lambsquarters [10, 15]: 75 | Plant response rating, Lambsquarters [10, 16]: 90 | Plant response rating, Lambsquarters [10, 17]: 95 | Nutsedge, Yellow plant response rating (0 to 100 scale) [11, 14]: 70 | Plant response rating, Nutsedge, Yellow [11, 15]: 65 | Plant response rating, Nutsedge, Yellow [11, 16]: 75 | Plant response rating, Nutsedge, Yellow [11, 17]: 80 | Goosegrass plant response rating (0 to 100 scale) [12, 14]: 75 | Plant response rating, Goosegrass [12, 15]: 65 | Plant response rating, Goosegrass [12, 16]: 75 | Plant response rating, Goosegrass [12, 17]: 85 | Blackgrass plant response rating (0 to 100 scale) [13, 14]: 20 | Plant response rating, Blackgrass [13, 15]: 5 | Plant response rating, Blackgrass [13, 16]: 25 | Plant response rating, Blackgrass [13, 17]: 40
